Here are results for one molecule from paper PMC8901748, “A novel prostaglandin E receptor 4 (EP4) small molecule antagonist induces articular cartilage regeneration” (Cell Discovery, 2022).

Assay [1] relates to Col2a1, Acan, Mmp3, Mmp9, Mmp13 expression in primary mouse chondrocytes. In words: qRT-PCR of anabolic and catabolic factors in primary chondrocytes. It is filed as cell-based. As for the experimental part:
ATDC5 cell line was purchased from Riken BioResource Center (Tsukuba, Japan) and grown in a 1:1 mixture of DMEM/F12 medium (Corning, 10-092-CVR) supplemented with 5% fetal bovine serum (Gibco, 10099, USA) and 1% penicillin-streptomycin solution (Life Technologies). Cells were maintained at 37 °C under 5% CO2. Primary chondrocytes were obtained from knee joint cartilage of newborn mice. Knee joints were dissected from the tibia plateau and femoral condyle articular cartilage of mouse pups and digested in 0.1% collagenase type II (Sigma) overnight at 37 °C and chondrocytes were harvested by centrifugation. Primary chondrocytes were cultured at a density of 5 × 10^3 cells per ml at 37 °C with 5% CO2. DMEM/F12 medium with 10% fetal bovine serum (FBS) and 1% penicillin–streptomycin was used to culture the primary chondrocytes. Chondrogenic differentiation were induced with chondrogenic medium, which contains insulin-transferrin-selenium (ITS) (Sigma, I3146), 10 ng/ml TGF-β3 (PEPROTECH, 100-36E, USA), 100 nM Dexamethasone (Sigma, D4902), 50 μg/ml VC (Sigma), 1 mM sodium pyruvate (Sigma) and 40 μg/ml proline (Sigma), and/or treatment with rmIL-1β (R&D, 401-ML/CF), TNFα (PEPROTECH, 300-01A-50) in DMEM/F12 for indicated days. Western blotting was performed according to standard protocols. Antibodies used were: rabbit anti-Mmp3 (1:1000, HuaBio), rabbit anti-Mmp13 (1:500, abcam, ab39012), rabbit anti-p-CREB (1:2000, Cell Signaling Technology, 87G3), rabbit anti-CREB (1:2000, Cell Signaling Technology, 48H2), mouse anti-GAPDH (1:5000; Sigma-Aldrich, G8795), rabbit anti-Col2 (Abcam, Ab34712), rabbit anti-STAT3 (1:2000; Abcam, ab68153), rabbit anti-p-STAT3 (Y705) (1:2000; Abcam, ab76315), rabbit anti -p65 (1:1000; CST, 3034), rabbit anti-p-p65 (1:1000; CST, 3033), and rabbit anti-IκBα (1:1000; Abways, CY5026).
(§1) Quantitative RT-PCR was performed to measure the relative mRNA levels. RNA samples were prepared from the chondrocytes using Trizol (Takara). cDNA was generated using the Prime Script RT reverse transcriptase kit (Yeasen, Drr036a). Primers used for amplification were shown in Supplementary Table S1, GAPDH was used as the house keeping gene.

The subject of the next assay is primary chondrocytes. In words: Chondrocyte micromass differentiation, Alcian blue staining. It is filed as cell-based, mouse. The settings on record: chondrogenic media, 7 days. As for the experimental part:
ATDC5 cell line was purchased from Riken BioResource Center (Tsukuba, Japan) and grown in a 1:1 mixture of DMEM/F12 medium (Corning, 10-092-CVR) supplemented with 5% fetal bovine serum (Gibco, 10099, USA) and 1% penicillin-streptomycin solution (Life Technologies). Cells were maintained at 37 °C under 5% CO2. Primary chondrocytes were obtained from knee joint cartilage of newborn mice. Knee joints were dissected from the tibia plateau and femoral condyle articular cartilage of mouse pups and digested in 0.1% collagenase type II (Sigma) overnight at 37 °C and chondrocytes were harvested by centrifugation. Primary chondrocytes were cultured at a density of 5 × 10^3 cells per ml at 37 °C with 5% CO2. DMEM/F12 medium with 10% fetal bovine serum (FBS) and 1% penicillin–streptomycin was used to culture the primary chondrocytes. […]
Micromass cultures were rinsed with PBS, fixed in PFA for 10 min, and then incubated with Alcian blue staining solution (1.0% Alcian blue in 0.1 N HCl) overnight at 4 °C. […] Alcian blue-stained cultures were extracted using 6 M guanidine hydrochloride and absorbance was measured at 620 nm.

Another assay relates to articular cartilage. Kind of assay: Aging-induced cartilage defect (CD) mouse model. It is filed as in vivo, mice (strain C57/BL/6). The settings on record: 19-month-old mice, 30 mg/kg daily by gavage for 3 months. As for the experimental part: WT male mice (strain C57/BL/6) were raised under identical conditions until 19 months. The vehicle, Celecoxib, and HL-43 were administered to mice at 30 mg/kg daily by gavage from 19 to 22 month, n = 9 for vehicle and HL-43-treated groups, n = 6 for Celecoxib treated group.
Knee joints of mice were fixed for 24 h in 4% paraformaldehyde (wt/vol), dehydrated into 100% ethanol, and decalcified for 1 week in 0.5 M EDTA pH 8.0. Paraffin-embedded tissue was sectioned (7 μm) and stained with Safranin O and Hematoxylin & Eosin (H&E) according to standard procedures. The OARSI histologic scoring of OA in the mouse was used to measure the cartilage and synovial damage of OA[71],[77]. Immunohistochemical staining for Col2a1, ColX, Sox9, p-CREB, and CREB were routinely performed and follow previous description. […] Histomorphometry and quantification were performed using ImageJ software. Quantification of Mmp13, ColX, Sox9 positive regions were quantified as the positive area/total cartilage area per field of view under ×40 objective magnification.

The subject of assay [2] is Sox9 target genes in ATDC5 cells. In words: qRT-PCR of Sox9 target genes in ATDC5 cells. In kind it is cell-based, mouse. The settings on record: 30 μM HL-43, 24 hr. As for the experimental part:
as §1

The test system of assay [3] is STAT3 nuclear translocation in ATDC5 cells. Kind of assay: Immunofluorescence of STAT3 and p-STAT3 subcellular localization. It is filed as cell-based, mouse. The settings on record: HL-43 (30 μM), 5 ng/ml IL-1β, 24 h.

As to `C[C@H](NC(=O)c1c(-c2ccccc2)nnn1CCOc1ccc(F)cc1)c1ccc(C(=O)O)cc1` [HL-43], the “EP4 and STAT3 dependent increase in MMP3/13 expression” value in assay [1] (2 ng/ml IL-1β, 24 h) was “dose-dependently inhibited”. Also, in assay [1] (primary mouse chondrocytes, 1 ng/ml IL-1β, 24 h), the “Expression of catabolic factors (Mmp3, Mmp9, and Mmp13)” value was “attenuated the expression of catabolic factors (Mmp3, Mmp9, and Mmp13) in a dose-dependent manner”. The “Expression of anabolic factors (Col2a1 and Acan)” value in assay [1] (primary mouse chondrocytes, 24 h) is on record as “promoted the expression of anabolic factors”. In assay [1] (primary murine chondrocytes, 1 ng/ml IL-1β, 24 hr, EP4 antagonists (2 nM)), the “Col2a1 expression (screen of EP4 antagonists)” value is recorded as “highest potency in inducing Col2a1 expression”. In addition, in assay [1] (primary murine chondrocytes, 1 ng/ml IL-1β, 24 hr, EP4 antagonists (30 μM)), the “Mmp3 expression (screen of EP4 antagonists)” value is given as “reducing Mmp3 expression”. The “Chondrogenesis of primary chondrocytes (Alcian blue)” value in the assay on primary chondrocytes is “promoted the chondrogenesis of the primary chondrocytes in a dose-dependent manner”. The “Cartilage integrity and articular cartilage thickness” value in the assay with articular cartilage is “notably preserved cartilage integrity and had thicker articular cartilage”. Moreover, the “Sox9 target genes (Col2a1, Acan, Sox5, Col9a1, Col11a1, Col27a1, Dcn, Prg4), qRT-PCR” value in assay [2] is given as “upregulated”. The “IL-1β-induced nuclear translocation of STAT3 and p-STAT3” value in assay [3] is recorded as “suppressed”.
